The values below come from paper PMC9120478 (Nature Communications, 2022).

Changes are numbered by the printed parent chain.

One experiment has as its target T1, wild-type mouse TRPV3 (Mus musculus, UniProt Q8K424).
T1 construct: expressed in transfected cells; host or cells: HEK 293 S GnTI- cells (baculovirus transduction)
T1 sequence (Q8K424 1-791): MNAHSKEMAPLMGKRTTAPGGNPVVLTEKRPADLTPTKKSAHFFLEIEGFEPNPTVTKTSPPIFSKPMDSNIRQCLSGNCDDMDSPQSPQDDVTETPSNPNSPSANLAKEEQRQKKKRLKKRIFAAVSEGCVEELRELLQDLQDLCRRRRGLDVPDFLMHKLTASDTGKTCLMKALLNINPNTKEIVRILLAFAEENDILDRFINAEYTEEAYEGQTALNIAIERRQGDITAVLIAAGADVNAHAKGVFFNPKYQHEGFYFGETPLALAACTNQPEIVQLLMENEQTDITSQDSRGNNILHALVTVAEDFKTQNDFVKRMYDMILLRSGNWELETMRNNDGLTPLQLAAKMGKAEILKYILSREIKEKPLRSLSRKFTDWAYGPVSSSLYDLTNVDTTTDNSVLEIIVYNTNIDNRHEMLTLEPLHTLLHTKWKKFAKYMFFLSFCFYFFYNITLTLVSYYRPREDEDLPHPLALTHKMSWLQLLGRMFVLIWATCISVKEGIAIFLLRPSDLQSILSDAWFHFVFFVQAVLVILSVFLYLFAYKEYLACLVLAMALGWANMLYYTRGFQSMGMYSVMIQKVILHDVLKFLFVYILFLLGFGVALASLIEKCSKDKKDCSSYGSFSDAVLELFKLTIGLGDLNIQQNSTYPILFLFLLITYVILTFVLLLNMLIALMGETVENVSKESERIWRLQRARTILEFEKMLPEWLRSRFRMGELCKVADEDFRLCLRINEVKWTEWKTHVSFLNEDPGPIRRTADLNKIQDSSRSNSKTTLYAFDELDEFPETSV
The experiment in a line: Fura-2 ratiometric Ca2+ uptake, inhibition of 2-APB-evoked response. Type of experiment: cell-based. How it is done: (§1) GFP-free C-terminally strep-tagged wild-type TRPV3, TRPV3-Y564A, TRPV3-Y594A, TRPV3-F633A, TRPV3-I663W, and TRPV3-F666A were expressed in HEK 293 S GnTI^− cells as previously described[41],[42],[53]. In short, 48 h after transduction, 1-ml aliquots of cell suspension were collected by centrifugation at 550 g for 5 min using an Eppendorf 5424 centrifuge. The cells were resuspended in the pre-warmed modified HEPES-buffered saline (HBS) containing 118 mM NaCl, 4.8 mM KCl, 1 mM MgCl2, 5 mM D-glucose, and 10 mM HEPES pH 7.4 and 5 μg/ml Fura-2 AM (Thermo Fisher Scientific) and incubated for 45 min at 37 °C. The Fura-2-loaded cells were then centrifuged for 5 min at 550 g, resuspended in the pre-warmed, modified HBS and incubated again for 30 min at 37 °C in the dark. The cells were subsequently pelleted and washed twice in the modified HBS. The washed cell pellets were kept on ice in the dark before taking an aliquot for fluorescence measurements. […] We used the lower CaCl2 concentration than before[42],[28] (2.5 mM) to minimize non-specific effects, which often appeared as a drift in the Fura-2 signal at high Ca^2+ concentration, presumably due to cell death as a result of calcium overload. Fluorescence measurements were conducted using a QuantaMaster 40 spectrofluorometer (Photon Technology International) at room temperature in a quartz cuvette under constant stirring. After 60 s since the beginning, the recording was paused and 2-APB was added. After the addition of 2-APB, the recording was continued for the additional 140 s. Changes in intracellular Ca^2+ were measured by taking the ratio of fluorescence emitted at 510 nm at the excitation wavelength of 340 nm and 380 nm. […] The data were processed using Origin 9.0 (OriginLab) software.

A further experiment has as its target T2, TRPV3-I663W (Mus musculus, UniProt Q8K424, I663W).
T2 construct: expressed in transfected cells; host or cells: HEK 293 S GnTI- cells (baculovirus transduction)
T2 sequence (Q8K424 1-791 I663W): T1 sequence (Q8K424 1-791) with I663W
Described as above. The settings on record: n = 3. It counts as cell-based.
Source text: The portal site in TRPV3 has not been previously shown to bind small-molecule inhibitors. This site, however, was originally proposed to be an entry pathway for local anesthetics to the pore of sodium channels[47]–[49] and found to accommodate cannabidiol in TRPV2, a closely-related representative of the vanilloid subfamily of TRP channels. […] We concluded that the Y594A mutation altered gating properties of TRPV3 and excluded this mutant from further analysis.
as §1

The term IC50 denotes the concentration needed to halve the response being measured. On to `CCCCOc1ccc(C(=O)CCN2CCCCC2)cc1` [dyclonine, 1-(4-butoxyphenyl)-3-piperidin-1-ylpropan-1-one], for which the “nHill of inhibition curve” value at wild-type mouse TRPV3 (logistic fit, 200 µM 2-APB, n = 7) was determined as 1.61 ± 0.27. The IC50 amounted to 29.8 ± 5.3 µM at wild-type mouse TRPV3 (read-out: IC50, inhibition of TRPV3-mediated Ca2+ uptake) and 31.5 ± 1.6 µM on TRPV3-I663W (200 µM 2-APB, read-out: IC50, inhibition of I663W mutant). For the same molecule, on TRPV3-I663W (logistic fit), the “nHill of inhibition curve, I663W” value came out at 1.63 ± 0.07.
